We go through 14 compounds from ChEMBL document CHEMBL2331344, “Pharmacological chaperones as therapeutics for lysosomal storage diseases” (J Med Chem, 2013).

Non-standard residues stand in square brackets, D forms with d. Residues, ends and D or L forms follow the SMILES beside them. *: point of attachment. Palmitoyl = CCCCCCCCCCCCCCCC(=O)*; Dap = NC[C@H](N)C(=O)O

The species entered for assay [1] is Homo sapiens. Kind of assay: Induction of beta-hexosaminidase S in fibroblasts derived from ISD patient at 10 uM after 5 days by Western blotting analysis relative to control. (In western blotting, separated proteins are transferred to a membrane and probed.)
For assay [2], the system named is T1, Lysosomal acid glucosylceramidase (Homo sapiens), P04062 [N409S].
T1 sequence (whole entry): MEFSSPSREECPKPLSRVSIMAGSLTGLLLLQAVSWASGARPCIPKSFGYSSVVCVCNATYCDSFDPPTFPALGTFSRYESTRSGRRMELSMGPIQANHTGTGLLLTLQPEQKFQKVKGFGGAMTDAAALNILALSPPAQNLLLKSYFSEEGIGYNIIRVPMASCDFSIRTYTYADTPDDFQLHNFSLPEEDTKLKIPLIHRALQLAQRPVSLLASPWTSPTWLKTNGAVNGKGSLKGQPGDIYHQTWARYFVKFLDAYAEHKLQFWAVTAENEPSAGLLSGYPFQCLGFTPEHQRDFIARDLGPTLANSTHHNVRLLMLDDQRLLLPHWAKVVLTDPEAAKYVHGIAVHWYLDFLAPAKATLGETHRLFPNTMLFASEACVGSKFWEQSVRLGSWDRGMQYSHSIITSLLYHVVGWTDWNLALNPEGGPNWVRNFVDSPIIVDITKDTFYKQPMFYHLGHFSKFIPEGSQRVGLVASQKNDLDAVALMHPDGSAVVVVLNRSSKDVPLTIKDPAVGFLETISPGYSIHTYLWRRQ
Kind of assay: Induction of beta glucosidase N370S mutant activity in cells derived from Gaucher disease patient at 20 uM relative to control.

Assay [3] has the same test system. Description: Induction of beta glucosidase N370S mutant activity in primary skin fibroblast derived from Gaucher disease patient at 20 uM after 5 days relative to control.
The test system is the same in assay [4]. Description: Induction of beta glucosidase N370S mutant activity in primary skin fibroblast derived from Gaucher disease patient after 5 days relative to control.
The species named for assay [5] is Homo sapiens. Description: Induction of beta glucosidase G202R mutant activity in primary skin fibroblast derived from patient after 5 days relative to control.
Assay [6] deals with Mus musculus. Description: Induction of beta glucosidase L444P mutant in mouse brain administered with drinking water measured after 4 weeks relative to control. In kind it is functional.
The subject of assay [7] is Mus musculus. Description: Induction of human alpha galactosidase A R301Q mutant activity expressed in C57BL/6 transgenic alpha galactosidase A knockout mouse at 30 mg/kg/day, po administered for 2 weeks measured in spleen relative to control. In kind it is functional.
For assay [8], the system named is Mus musculus. Description: Induction of in human alpha galactosidase A R301Q mutant activity expressed in C57BL/6 transgenic alpha galactosidase A knockout mouse at 30 mg/kg/day, po administered for 2 weeks measured in kidney relative to control. In kind it is functional.
Assay [9] deals with T2, Alpha-galactosidase A (Homo sapiens), P06280 [R301Q].
T2 sequence (whole entry): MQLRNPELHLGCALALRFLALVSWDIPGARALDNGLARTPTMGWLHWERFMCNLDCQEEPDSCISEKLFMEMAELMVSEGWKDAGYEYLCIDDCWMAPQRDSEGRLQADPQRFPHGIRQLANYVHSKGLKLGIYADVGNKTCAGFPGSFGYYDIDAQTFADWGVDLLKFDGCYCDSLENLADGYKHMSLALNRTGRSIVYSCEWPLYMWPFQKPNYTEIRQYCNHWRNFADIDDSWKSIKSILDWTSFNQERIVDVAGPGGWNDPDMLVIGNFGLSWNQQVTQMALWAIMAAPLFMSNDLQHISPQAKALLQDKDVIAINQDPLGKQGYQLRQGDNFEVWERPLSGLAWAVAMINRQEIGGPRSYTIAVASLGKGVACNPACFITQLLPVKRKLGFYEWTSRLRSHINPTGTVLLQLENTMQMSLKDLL
Description: Induction of alpha galactosidase A R301Q mutant activity in lymphoblasts derived from Fabry disease patient at 100 uM after 4 days relative to control.

In assay [10] the test system is Mus musculus. Description: Induction of human alpha galactosidase A R301Q mutant activity expressed in C57BL/6 transgenic alpha galactosidase A knockout mouse at 30 mg/kg/day, po administered for 2 weeks measured in heart relative to control. In kind it is functional.
The test system of assay [11] is Mus musculus. Kind of assay: Induction of human alpha galactosidase A R301Q mutant activity expressed in C57BL/6 transgenic alpha galactosidase A knockout mouse at 3 mg/kg/day, po administered for 2 weeks measured in liver relative to control. In kind it is functional.
Assay [12] concerns Mus musculus. Description: Induction of human alpha galactosidase A R301Q mutant activity expressed in C57BL/6 transgenic alpha galactosidase A knockout mouse at 3 mg/kg/day, po administered for 2 weeks measured in heart relative to control. In kind it is functional.
The test system of assay [13] is Mus musculus. Kind of assay: Induction of human alpha galactosidase A R301Q mutant activity expressed in C57BL/6 transgenic alpha galactosidase A knockout mouse at 30 mg/kg/day, po administered for 2 weeks measured in liver relative to control. In kind it is functional.
Assay [14] deals with Mus musculus. Description: Induction of human alpha galactosidase A R301Q mutant activity expressed in C57BL/6 transgenic alpha galactosidase A knockout mouse at 3 mg/kg/day, po administered for 2 weeks measured in kidney relative to control. In kind it is functional.
Assay [15] deals with Mus musculus. Description: Induction of human alpha galactosidase A R301Q mutant activity expressed in C57BL/6 transgenic alpha galactosidase A knockout mouse at 3 mg/kg/day, po administered for 2 weeks measured in spleen relative to control. In kind it is functional.
The target of assay [16] is T3, Beta-glucosidase (Homo sapiens, UniProt Q9HCG7).
T3 sequence (Q9HCG7 whole entry): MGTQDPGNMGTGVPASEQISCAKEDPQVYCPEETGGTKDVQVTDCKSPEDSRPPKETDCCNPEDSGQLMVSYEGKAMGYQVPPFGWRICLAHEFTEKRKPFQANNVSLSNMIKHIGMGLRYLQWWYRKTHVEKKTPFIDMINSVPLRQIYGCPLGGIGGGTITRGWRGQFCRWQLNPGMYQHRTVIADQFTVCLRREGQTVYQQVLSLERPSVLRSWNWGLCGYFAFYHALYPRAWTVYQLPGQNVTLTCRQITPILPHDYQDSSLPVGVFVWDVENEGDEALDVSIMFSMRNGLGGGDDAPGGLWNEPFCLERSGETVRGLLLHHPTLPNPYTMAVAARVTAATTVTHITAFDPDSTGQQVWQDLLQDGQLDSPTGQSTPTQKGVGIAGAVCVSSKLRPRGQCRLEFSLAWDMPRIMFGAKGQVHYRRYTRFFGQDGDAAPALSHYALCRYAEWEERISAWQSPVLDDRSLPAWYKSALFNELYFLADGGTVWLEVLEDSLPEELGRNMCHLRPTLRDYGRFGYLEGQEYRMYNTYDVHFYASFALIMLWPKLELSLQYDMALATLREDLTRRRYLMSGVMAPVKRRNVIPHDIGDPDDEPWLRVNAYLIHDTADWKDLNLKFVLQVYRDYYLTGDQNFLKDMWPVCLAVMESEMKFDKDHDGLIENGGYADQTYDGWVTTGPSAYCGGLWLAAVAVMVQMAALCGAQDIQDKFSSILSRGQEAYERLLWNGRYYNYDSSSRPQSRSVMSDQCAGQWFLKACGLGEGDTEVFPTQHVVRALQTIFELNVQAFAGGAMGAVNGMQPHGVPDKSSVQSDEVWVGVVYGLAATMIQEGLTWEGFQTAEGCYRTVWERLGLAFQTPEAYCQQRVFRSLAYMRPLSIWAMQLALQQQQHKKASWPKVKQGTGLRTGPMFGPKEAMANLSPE
Kind of assay: Inhibition of beta glucosidase (unknown origin).

The target in assay [17] is T4, Beta-galactosidase (Homo sapiens, UniProt P16278).
T4 sequence (P16278 whole entry): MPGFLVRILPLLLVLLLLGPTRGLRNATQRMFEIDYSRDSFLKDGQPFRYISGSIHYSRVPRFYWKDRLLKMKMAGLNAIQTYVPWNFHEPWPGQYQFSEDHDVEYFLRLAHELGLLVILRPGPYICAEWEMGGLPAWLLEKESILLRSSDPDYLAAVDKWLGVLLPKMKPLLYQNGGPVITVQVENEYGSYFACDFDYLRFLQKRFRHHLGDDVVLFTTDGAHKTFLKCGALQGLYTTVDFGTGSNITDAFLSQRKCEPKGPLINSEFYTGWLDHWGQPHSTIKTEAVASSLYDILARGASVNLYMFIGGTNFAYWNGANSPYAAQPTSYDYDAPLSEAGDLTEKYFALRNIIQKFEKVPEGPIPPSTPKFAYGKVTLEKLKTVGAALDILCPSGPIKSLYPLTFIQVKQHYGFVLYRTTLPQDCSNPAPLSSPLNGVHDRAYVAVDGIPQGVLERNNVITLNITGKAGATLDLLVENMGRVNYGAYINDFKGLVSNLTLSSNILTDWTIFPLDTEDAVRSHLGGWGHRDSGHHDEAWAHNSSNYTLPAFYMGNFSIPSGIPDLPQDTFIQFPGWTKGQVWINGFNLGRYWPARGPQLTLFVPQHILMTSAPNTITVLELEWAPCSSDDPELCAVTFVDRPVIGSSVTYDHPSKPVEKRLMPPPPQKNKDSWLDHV
Description: Inhibition of human beta galactosidase.

Assay [18] is filed under the species Homo sapiens. Description: Induction of beta-hexosaminidase S activity in fibroblasts derived from ISD patient at 100 uM after 5 days by Western blotting analysis relative to control.
The target in assay [19] is T5, Palmitoyl-protein thioesterase 1 (Homo sapiens, UniProt P50897).
T5 sequence (P50897 whole entry): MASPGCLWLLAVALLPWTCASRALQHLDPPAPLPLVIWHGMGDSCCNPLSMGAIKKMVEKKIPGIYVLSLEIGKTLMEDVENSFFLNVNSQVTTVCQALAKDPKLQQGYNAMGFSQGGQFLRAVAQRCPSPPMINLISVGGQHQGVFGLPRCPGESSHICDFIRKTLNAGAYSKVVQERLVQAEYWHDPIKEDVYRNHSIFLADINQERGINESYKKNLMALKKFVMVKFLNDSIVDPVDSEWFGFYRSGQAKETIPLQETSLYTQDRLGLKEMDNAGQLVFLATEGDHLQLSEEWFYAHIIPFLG
Description: Inhibition of PPT1 (unknown origin) in cell lysates using fluorescent-based MUGSP as substrate after 1 to 3 hrs.

The species entered for assay [20] is Homo sapiens. Kind of assay: Induction of beta-hexosaminidase S in fibroblasts derived from ISD patient after 5 days by Western blotting analysis relative to control.
The nature of assay [21]: Non competitive inhibition of beta hexosaminidase (unknown origin). Set-up: species or system Homo sapiens.
Assay [22] is filed under the species Homo sapiens. Description: Induction of beta hexosaminidase activity in patient derived cell-line at 50 uM relative to control.
The test system of assay [23] is T1, Lysosomal acid glucosylceramidase (Homo sapiens), P04062 [N409S]. Description: Induction of beta glucosidase N370S mutant activity in lymphoblast derived from Gaucher disease patient at 5 uM after 3 days relative to control.
For assay [24] the test system is unchanged. Description: Induction of beta glucosidase N370S mutant (unknown origin) at 10 nM relative to control.
In assay [25] the target is Lysosomal acid glucosylceramidase (Homo sapiens) (UniProt P04062). Description: Binding affinity to beta glucosidase (unknown origin) relative to control.
Chain of Lysosomal acid glucosylceramidase (Homo sapiens) (P04062 whole entry, looked up): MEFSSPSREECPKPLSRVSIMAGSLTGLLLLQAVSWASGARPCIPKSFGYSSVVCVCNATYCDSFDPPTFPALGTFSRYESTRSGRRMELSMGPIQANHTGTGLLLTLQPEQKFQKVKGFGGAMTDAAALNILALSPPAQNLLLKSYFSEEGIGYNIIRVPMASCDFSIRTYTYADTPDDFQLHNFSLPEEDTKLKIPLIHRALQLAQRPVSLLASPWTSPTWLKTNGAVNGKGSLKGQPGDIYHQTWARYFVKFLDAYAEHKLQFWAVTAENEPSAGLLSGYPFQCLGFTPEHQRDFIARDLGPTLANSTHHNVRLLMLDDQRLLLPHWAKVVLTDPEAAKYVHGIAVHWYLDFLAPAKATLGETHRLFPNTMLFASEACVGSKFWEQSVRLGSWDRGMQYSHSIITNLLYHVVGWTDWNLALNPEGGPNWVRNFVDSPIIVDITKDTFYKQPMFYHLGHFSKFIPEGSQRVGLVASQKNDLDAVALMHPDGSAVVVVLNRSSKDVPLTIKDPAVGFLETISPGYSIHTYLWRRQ

What is called IC50 is the concentration at which inhibition is half-maximal. What is called Ki is the dissociation constant of the complex between target and ligand, obtained from inhibition or displacement. A higher Ki goes with weaker binding.

The compound `O=C1c2cccc3cccc(c23)C(=O)N1CCNCCN1C(=O)c2cccc3cccc(c23)C1=O` displayed a fold change (FC) in assay [1] of 3.

Turning to `OC[C@@H]1[C@@H](O)C(O)[C@@H](O)CN1CCCn1cc(COc2ccccc2)nn1` (single isomer, unassigned), the fold change (FC) in [2] is 1.9.

Take `CN(C)c1cccc2c(S(=O)(=O)NCCCCCCN(CCCCCCNS(=O)(=O)c3cccc4c(N(C)C)cccc34)C(=O)CCCCCCN3C[C@H](O)[C@@H](O)[C@H](O)[C@H]3CO)cccc12`: in [3], the fold change (FC) came out at 1.6. On to `O=C(CCCCCN1C[C@H](O)[C@@H](O)[C@H](O)[C@H]1CO)NC12CC3CC(CC(C3)C1)C2`, for which the fold change (FC) in assay [4] came to 1.4; in assay [5], 2.7. `OC[C@H]1CNC[C@@H](O)[C@@H]1O` [AFEGOSTAT]: in assay [6], the “fold change (FC)” value was found to be 2. In the case of `OC[C@H]1NC[C@H](O)[C@@H](O)[C@H]1O`, the “fold change (FC)” value in [7] came to 1.8; in assay [8], 28; in [9], 14; in assay [10], 18; in assay [11], 3.1; in assay [12], 4. Further, the “fold change (FC)” value is on record as 7.1 in assay [13], 2 in [14] and 1.7 in [15]. For `O[C@H]1[C@H](O)[C@@H](O)CN2CC[C@H](O)[C@H]12` [CASTANOSPERMINE], in assay [16], the IC50 was 19 µM. This counts as double-digit micromolar. Take `CCCCCCCCN[C@@H]1C=C(CO)[C@H](O)[C@H](O)[C@H]1O`: in [17], the Ki came to 0.3 µM. This counts as sub-micromolar. `Cc1[nH]cc2c(=O)n(Cc3ccc(Cl)cc3)ncc12` yielded a fold change (FC) in assay [18] of 2.5. In assay [19], `CCCCCCCCCCCCCCCC(=O)NC[C@H](NC(=O)CNC(C)=O)C(=O)N[C@H](C(=O)N[C@@H](CCCCN)C(=O)N[C@H](C(=O)N[C@@H](CCCCN)C(=O)N[C@@H](CCCCN)C(=O)O)[C@@H](C)CC)C(C)C` (Ac-G[Dap](Palmitoyl)VKIKK-OH) had an IC50 of 10 µM. The compound `O=C1c2ccccc2/C(=N/O)C1[N+](=O)[O-]` (stereo not given) yielded a fold change (FC) in assay [20] of 2. In assay [21], `CC(=O)N[C@H]1CN(Cc2ccccc2)[C@@H](CO)[C@@H]1O` gave an inhibition constant Ki of 2.8 µM. The fold change (FC) in assay [22] was 2. With `CCCCCCCCC/N=C1/N[C@H]2[C@H](O)[C@@H](O)[C@H](O)[C@@H](O)[C@H]2O1` (racemic), the fold change (FC) in [23] is 1.7. Regarding `CCCCCCO[C@@H]1CNC[C@H](O)[C@H]1O`, the fold change (FC) in assay [24] was 1.5; in [25], > 100.
